Measurements reported in patent publication EP2607478A1, “Phenanthroline treated MSC” (Universiteit Twente, priority 2011, dated 2013).

Tested on: MSCs
Assay: Whole genome expression analysis (Illumina microarray) of treated MSCs
Format: cell-based, Human
Conditions: DFO versus Bas
Description: MSCs were seeded in T25 flasks at 5000 cells/cm^2 and allowed to attach overnight in proliferation medium. […] After 48 hours, RNA was isolated as described above. From 500 ng of RNA, cRNA was synthesized using the Illumina TotalPrep RNA amplification Kit (Ambion), according to the manufacturer's protocol and the quality of RNA and cRNA was verified on a Bioanalyzer 2100 (Agilent). Microarrays were performed using Illumina HT-12 v4 expression Beadchips, according to the manufacturer's protocol. Briefly, 750 ng of cRNA was hybridized on the array overnight after which the array was washed and blocked. Then, by addition of streptavidin Cy-3 a fluorescent signal was developed. Arrays were scanned on an Illumina iScan reader and raw intensity values were background corrected in GenomeStudio (Illumina). Further data processing and statistical testing were performed with R and Bioconductor statistical software (www.bioconductor.org), using package lumi. Raw intensity values were transformed using variance stabilization and a quantile normalization was performed. A linear modelling approach with empirical Bayesian methods, as implemented in Limma package (54), was applied for differential expression analysis of the resulting probe-level expression values. A gene list, containing only those genes with an absolute 1.5-fold change between different treatments, was uploaded to Ingenuity Pathway Analysis (IPA) software and used for core analysis. Pathways or networks with a p-value of 0.05 were considered statistically significant.

## CC(=O)N(O)CCCCCNC(=O)CCC(=O)N(O)CCCCCNC(=O)CCC(=O)N(O)CCCCCN [DFO, reference compound]
ProbeID ILMN_1765990
  logFC(D142_ DFO - D142_BAS) KCNK2: -2,07
ProbeID ILMN_1767556
  logFC(D142_ DFO - D142_BAS) C10orf10: 3,15
ProbeID ILMN_1770085
  logFC(D142_ DFO - D142_BAS) BTG2: 2,57
ProbeID ILMN_1770228
  logFC(D142_ DFO - D142_BAS) KRT34: 3,81
ProbeID ILMN_1770290
  logFC(D142_ DFO - D142_BAS) CNN2: -2,29
ProbeID ILMN_1772612
  logFC(D142_ DFO - D142_BAS) ANGPTL2: -2,31
ProbeID ILMN_1772876
  logFC(D142_ DFO - D142_BAS) ZNF395: 2,75
ProbeID ILMN_1772910
  logFC(D142_ DFO - D142_BAS) GAS1: -3,12
ProbeID ILMN_1773337
  logFC(D142_ DFO - D142_BAS) DKK1: 2,79
ProbeID ILMN_1774602
  logFC(D142_ DFO - D142_BAS) FBLN2: -2,23
ProbeID ILMN_1775708
  logFC(D142_ DFO - D142_BAS) SLC2A3: 2,53
ProbeID ILMN_1777513
  logFC(D142_ DFO - D142_BAS) KCTD11: 2,12
ProbeID ILMN_1779258
  logFC(D142_ DFO - D142_BAS) LOC644774: 2,61
ProbeID ILMN_1784294
  logFC(D142_ DFO - D142_BAS) CPA4: 5,59
ProbeID ILMN_1784948
  logFC(D142_ DFO - D142_BAS) SPOCD1: -2,53
ProbeID ILMN_1785891
  logFC(D142_ DFO - D142_BAS) PRKD1: -2,05
ProbeID ILMN_1786065
  logFC(D142_ DFO - D142_BAS) UHRF1: -2,34
ProbeID ILMN_1787212
  logFC(D142_ DFO - D142_BAS) CDKN1A: 2,78
ProbeID ILMN_1787815
  logFC(D142_ DFO - D142_BAS) TRIB3: 3,16
ProbeID ILMN_1789507
  logFC(D142_ DFO - D142_BAS) COL11A1: -2,55
ProbeID ILMN_1789702
  logFC(D142_ DFO - D142_BAS) GBE1: 2,29
ProbeID ILMN_1790338
  logFC(D142_ DFO - D142_BAS) PRRX2: -2,49
ProbeID ILMN_1790529
  logFC(D142_ DFO - D142_BAS) LUM: -3,27
ProbeID ILMN_1791447
  logFC(D142_ DFO - D142_BAS) CXCL12: -2,57
ProbeID ILMN_1792356
  logFC(D142_ DFO - D142_BAS) DPYSL4: 3,05
ProbeID ILMN_1792455
  logFC(D142_ DFO - D142_BAS) TMEM158: 2,58
ProbeID ILMN_1794017
  logFC(D142_ DFO - D142_BAS) SERTAD1: 2,25
ProbeID ILMN_1794863
  logFC(D142_ DFO - D142_BAS) CAMK2N1: 2,65
ProbeID ILMN_1795697
  logFC(D142_ DFO - D142_BAS) PTP4A2: 2,22
ProbeID ILMN_1796417
  logFC(D142_ DFO - D142_BAS) ASNS: 2,93
ProbeID ILMN_1797728
  logFC(D142_ DFO - D142_BAS) HMGCS1: -2,09
ProbeID ILMN_1798081
  logFC(D142_ DFO - D142_BAS) PTPRF: 2,28
ProbeID ILMN_1798249
  logFC(D142_ DFO - D142_BAS) AK3L1: 2,66
ProbeID ILMN_1801077
  logFC(D142_ DFO - D142_BAS) PLIN2: 2,94
ProbeID ILMN_1803647
  logFC(D142_ DFO - D142_BAS) FAM162A: 2,50
ProbeID ILMN_1803825
  logFC(D142_ DFO - D142_BAS) CXCL12: -2,19
ProbeID ILMN_1803882
  logFC(D142_ DFO - D142_BAS) VEGFA: 3,15
ProbeID ILMN_1808657
  logFC(D142_ DFO - D142_BAS) FMO3: -2,46
ProbeID ILMN_1809813
  logFC(D142_ DFO - D142_BAS) PGF: 2,55
ProbeID ILMN_1809931
  logFC(D142_ DFO - D142_BAS) NDRG1: 3,57
ProbeID ILMN_1810172
  logFC(D142_ DFO - D142_BAS) SFRP4: -2,03
ProbeID ILMN_1810725
  logFC(D142_ DFO - D142_BAS) FAM129A: 2,88
ProbeID ILMN_1810836
  logFC(D142_ DFO - D142_BAS) PDE5A: -2,08
ProbeID ILMN_1811909
  logFC(D142_ DFO - D142_BAS) LOC402221: -2,22
ProbeID ILMN_1812091
  logFC(D142_ DFO - D142_BAS) FAM20A: -2,11
ProbeID ILMN_1812968
  logFC(D142_ DFO - D142_BAS) SOX18: -2,09
ProbeID ILMN_1814998
  logFC(D142_ DFO - D142_BAS) FKSG30: -2,25
ProbeID ILMN_1843198 (no gene name printed)
  logFC(D142_ DFO - D142_BAS): 3,25
ProbeID ILMN_1890614 (no gene name printed)
  logFC(D142_ DFO - D142_BAS): 3,41
ProbeID ILMN_1892403
  logFC(D142_ DFO - D142_BAS) SNORD13: 2,51
ProbeID ILMN_2052208
  logFC(D142_ DFO - D142_BAS) GADD45A: 2,60
ProbeID ILMN_2053415
  logFC(D142_ DFO - D142_BAS) LDLR: -2,03
ProbeID ILMN_2054297
  logFC(D142_ DFO - D142_BAS) PTGS2: 2,25
ProbeID ILMN_2062701
  logFC(D142_ DFO - D142_BAS) GAS1: -2,07
ProbeID ILMN_2098446
  logFC(D142_ DFO - D142_BAS) PMAIP1: 2,11
ProbeID ILMN_2103547
  logFC(D142_ DFO - D142_BAS) GOLGA8B: 2,12
ProbeID ILMN_2108735
  logFC(D142_ DFO - D142_BAS) EEF1A2: 2,72
ProbeID ILMN_2117508
  logFC(D142_ DFO - D142_BAS) CTHRC1: -2,46
ProbeID ILMN_2121408
  logFC(D142_ DFO - D142_BAS) HBEGF: 2,13
ProbeID ILMN_2132982
  logFC(D142_ DFO - D142_BAS) IGFBP5: 2,53
ProbeID ILMN_2138765
  logFC(D142_ DFO - D142_BAS) PLIN2: 2,74
ProbeID ILMN_2144426
  logFC(D142_ DFO - D142_BAS) HIST2H2AA3: 2,07
ProbeID ILMN_2148785
  logFC(D142_ DFO - D142_BAS) GBP1: -2,41
ProbeID ILMN_2150851
  logFC(D142_ DFO - D142_BAS) SERPINB2: 3,06
ProbeID ILMN_2150856
  logFC(D142_ DFO - D142_BAS) SERPINB2: 3,04
ProbeID ILMN_2150894
  logFC(D142_ DFO - D142_BAS) ALDH1B1: -2,55
ProbeID ILMN_2167805
  logFC(D142_ DFO - D142_BAS) LUM: -2,01
ProbeID ILMN_2186061
  logFC(D142_ DFO - D142_BAS) PFKFB3: 4,03
ProbeID ILMN_2186137
  logFC(D142_ DFO - D142_BAS) RRAD: 3,12
ProbeID ILMN_2188862
  logFC(D142_ DFO - D142_BAS) GDF15: 6,31
ProbeID ILMN_2200836
  logFC(D142_ DFO - D142_BAS) HSPB7: -2,12
ProbeID ILMN_2214197
  logFC(D142_ DFO - D142_BAS) TP53INP1: 2,62
ProbeID ILMN_2216852
  logFC(D142_ DFO - D142_BAS) PGK1: 2,75
ProbeID ILMN_2222008
  logFC(D142_ DFO - D142_BAS) KIFC1: -2,05
ProbeID ILMN_2234697
  logFC(D142_ DFO - D142_BAS) BEX1: -3,45
ProbeID ILMN_2234956
  logFC(D142_ DFO - D142_BAS) LEPR: -2,33
ProbeID ILMN_2301083
  logFC(D142_ DFO - D142_BAS) UBE2C: -2,01
ProbeID ILMN_2307903
  logFC(D142_ DFO - D142_BAS) VCAM1: -3,16
ProbeID ILMN_2322375
  logFC(D142_ DFO - D142_BAS) MAFF: 2,07
ProbeID ILMN_2337058
  logFC(D142_ DFO - D142_BAS) PORCN: 2,69
ProbeID ILMN_2338038
  logFC(D142_ DFO - D142_BAS) AK3L1: 2,28
ProbeID ILMN_2344283
  logFC(D142_ DFO - D142_BAS) FMO3: -2,30
ProbeID ILMN_2347068
  logFC(D142_ DFO - D142_BAS) MKNK2: 2,45
ProbeID ILMN_2349459
  logFC(D142_ DFO - D142_BAS) BIRC5: -2,14
ProbeID ILMN_2361862
  logFC(D142_ DFO - D142_BAS) VLDLR: 3,17
ProbeID ILMN_2374865
  logFC(D142_ DFO - D142_BAS) ATF3: 3,23
ProbeID ILMN_2375879
  logFC(D142_ DFO - D142_BAS) VEGFA: 3,40
ProbeID ILMN_2376953
  logFC(D142_ DFO - D142_BAS) KCNK2: -2,07
ProbeID ILMN_2386444
  logFC(D142_ DFO - D142_BAS) ANGPTL4: 2,64
ProbeID ILMN_2387385
  logFC(D142_ DFO - D142_BAS) IGFBP1: 2,45
ProbeID ILMN_2405521
  logFC(D142_ DFO - D142_BAS) MTHFD2: 2,84
ProbeID ILMN_2413158
  logFC(D142_ DFO - D142_BAS) PODXL: 2,92
ProbeID ILMN_3237270
  logFC(D142_ DFO - D142_BAS) LOC100133609: 2,49
ProbeID ILMN_3237448
  logFC(D142_ DFO - D142_BAS) BEND5: 2,61
ProbeID ILMN_3242900
  logFC(D142_ DFO - D142_BAS) HIST2H2AA4: 2,11
ProbeID ILMN_3248701
  logFC(D142_ DFO - D142_BAS) LOC644350: 2,60
ProbeID ILMN_3248758
  logFC(D142_ DFO - D142_BAS) LOC728934: 2,47
ProbeID ILMN_3283772
  logFC(D142_ DFO - D142_BAS) LOC644237: 2,17
ProbeID ILMN_3305273
  logFC(D142_ DFO - D142_BAS) LOC729779: 3,12
